According to the supplement of paper PMC10307832:

Assays:
Assay in all cases: relative viability (nuclei count vs DMSO), 5 days (fraction); higher = more cells survive
[1] = compound: CC1=C(C(=NN1)C)CC2=C(C3=C(S2)N(C(=O)N(C3=O)C)CC(C)C)C(=O)N4C[C@@H](CO4)O + Cc1nc(NC(=O)N2CCC[C@H]2C(N)=O)sc1-c1ccnc(C(C)(C)C(F)(F)F)c1 [Alpelisib] (partner 2 µM)
Method in brief: (§1)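 Nuclei were stained with Hoechst during a one-step fixation (final 0.05% Triton X-100, 1% formaldehyde, 1 ug/ml Hoechst) carried out 5 days after dosing, then counted on 4× images. The cells, lung cancer lines in 1536-well plates, had been dosed by pin tool the day after seeding with one drug alone or a fixed anchor-drug dose plus five library-drug doses (not always all listed) in √10 steps. Relative viability is the nuclei count in treated wells divided by that in vehicle wells, and each value is the median of duplicate plates.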

[2] = compound: CC1=C(C(=NN1)C)CC2=C(C3=C(S2)N(C(=O)N(C3=O)C)CC(C)C)C(=O)N4C[C@@H](CO4)O + Nc1nc2[nH]cc(CCc3ccc(C(=O)N[C@@H](CCC(=O)O)C(=O)O)cc3)c2c(=O)[nH]1 [Pemetrexed] (partner 0.2 µM)
Method in brief: as §1

[3] = compound: CC1=C(C(=NN1)C)CC2=C(C3=C(S2)N(C(=O)N(C3=O)C)CC(C)C)C(=O)N4C[C@@H](CO4)O + O=C(c1cc(Cc2n[nH]c(=O)c3ccccc23)ccc1F)N1CCN(C(=O)C2CC2)CC1 [Olaparib] (partner 8 µM)
Method in brief: as §1

IDH-C35 + Dasatinib = compound: Cc1ccccc1C(C(=O)NC1CCCCC1)N(C(=O)Cn1ccnc1C)c1cccc(F)c1 [IDH-C35] + Cc1nc(Nc2ncc(C(=O)Nc3c(C)cccc3Cl)s2)cc(N2CCN(CCO)CC2)n1 [Dasatinib] (partner 0.075 µM)
Method in brief: as §1

Cell Line: UMC-11
- relative viability ([1]; first compound 0.0025 µM): 1.03
- relative viability ([1]; first compound 0.007906 µM): 0.897
- relative viability ([1]; first compound 0.025 µM): 0.75
- relative viability ([1]; first compound 0.07906 µM): 0.986
- relative viability ([1]; first compound 0.25 µM): 0.977
- relative viability ([2]; first compound 0.0025 µM): 0.791
- relative viability ([2]; first compound 0.007906 µM): 0.86
- relative viability ([2]; first compound 0.025 µM): 0.779
- relative viability ([2]; first compound 0.07906 µM): 0.761
- relative viability ([2]; first compound 0.25 µM): 0.789
- relative viability ([3]; first compound 0.0025 µM): 0.386
- relative viability ([3]; first compound 0.007906 µM): 0.358
- relative viability ([3]; first compound 0.025 µM): 0.383
- relative viability ([3]; first compound 0.07906 µM): 0.456
- relative viability ([3]; first compound 0.25 µM): 0.957
- relative viability (IDH-C35 + Dasatinib; first compound 0.08 µM): 0.416
- relative viability (IDH-C35 + Dasatinib; first compound 0.253 µM): 0.472
- relative viability (IDH-C35 + Dasatinib; first compound 0.8 µM): 0.474
- relative viability (IDH-C35 + Dasatinib; first compound 2.53 µM): 0.532
- relative viability (IDH-C35 + Dasatinib; first compound 8 µM): 0.443
